Laboratory results published in US20060167098A1, “Method for the treatment of diseases linked to an accumulation of triglycerides and cholesterol” (Institut National De La Sante ET De LA Recherche Medicale …, priority 2003, published 2006).

Columns and labels:
Format in all cases: in vivo
[1] = Plasma lipids in lean mice fed with a standard diet, 6 weeks, not fasted; conditions: 100 mg/kg/day 6 weeks
Description: (§1) Plasma lipids (triglycerides, total cholesterol, phospholipids) were measured on an automatic analyser (Hitachi 717®). The commercial kits used to assess triglycerides, total cholesterol and phospholipids on this analyser were all from bioMérieux (references 61238, 61219 and 61491, respectively). Plasma non esterified fatty acids (NEFA) were assessed by using a commercial kit (Wako, reference 994-75409). Hepatic and plasma lipids were performed at the end of six weeks of treatment in animals that have been fasted for 48 hours. Triglycerides and HDL-cholesterol were also assessed after 2 months (in the fed state) or after 4 months of treatment (after an overnight fast).
Plasma lipids were assessed in lean mice fed with a standard diet and receiving or not of 100 mg/kg/day of β-aminoisobutyric acid (BAIBA) in the drinking water during 6 weeks. There were six animals per group. At the end of the 6 weeks of treatment, mice were not fasted and samples of blood were then collected for the assessment of plasma triglycerides and total cholesterol. […] Indeed, plasma triglycerides were 3.18±0.23 and 2.95±0.21 mmol/L, respectively in control and treated mice whereas plasma total cholesterol was 5.35±0.35 and 5.23±0.28 mmol/L, respectively in control and treated mice.

[2] = Body fat mass by DEXA in Swiss (lean) mice, standard diet, fasted 48 hours before measurement; conditions: for decrease of body fat mass: 100 mg/kg/day in drinking water, vs control; for decrease of body fat mass / body fat mass: fasted 48 h; for body fat mass: mean±SEM
Description: Six to 8 weeks old male (Crl:CD-1(ICR)BR) Swiss mice, and six to ten weeks old male RjOrl Swiss mice (i.e. lean mice) weighing 28 and 32 grams were purchased from Dépré (Saint Doulchard, France). Ten to 12 weeks old ob/ob male (C57BL/6-ob) mice (i.e. obese mice), weighing 40 to 44 grams were purchased from Janvier (Le-Genest-St-Isle, France). In one experiment, younger ob/ob mice (5-6 weeks old) weighing 25-26 grams were also studied. In genetically obese ob/ob mice, a mutation on the gene of leptin prevents the normal production of this hormone, thus increasing appetite and decreasing energy consumption (Friedman J. M., Halaas J. L., 1998, Nature 395 : 763-770). […] The animals were acclimatized for one to two weeks before the start of experiments.
D,L-β-Aminoisobutyric acid (BAIBA) was purchased from Sigma-Aldrich. BAIBA has been administered in drinking water at the dose of 100 mg/kg/day or 500 mg/kg/day for 6 weeks, 2 months or 4 months according to the experiments.
The in vivo determination of body fat mass in anesthetized mice has been performed by “DEXA” (Dual Energy X-ray Absorptiometry) (Pietriobelli A., Formica C., Wang Z., Heymsfield S. B., 1996, Am. J. Physiol. 271 (Endocrinol. Metab. 34): E941-E951)). […] It is noteworthy that DEXA also gives for each investigated animal its lean mass that is the total amount of water and proteins (in grams) in the body (excluding the head). Therefore, for a given animal, DEXA allows the determination of the percentage of body fat which is its body fat mass divided by the sum of its body lean and fat masses (fat mass/(lean mass+fat mass)). The “DEXA” apparatus was a Piximus® from Lunar Corporation (Madison, Wis.). Mice were anesthetized thanks to a mixture of xylazine and ketamine.
Procedure 2: the animals were fasted for 48 hours before DEXA measurements which have been performed 2 weeks (T2) and 6 weeks (T6) after starting the treatment. In this procedure, DEXA measurement before the beginning of treatment has not been performed. Comparisons of the different parameters (e.g. fat mass, body weight) between both groups were performed at T2 and at T6.
In a first series of experiments, the effects of 100 mg/kg/day of β-aminoisobutyric acid (BAIBA) on body fat were investigated in Swiss (lean) mice fed with a standard diet (A04 chow) and fasted for 48 hours before DEXA measurements. Mice were 6 to 8 weeks old at the beginning of the experiment. DEXA was performed twice after the initiation of the treatment. In this experiment, BAIBA decreased body fat mass by 31% and 25%, respectively after 2 and 6 weeks of treatment. The results in FIG. 1 indicate that: • after 2 weeks, body fat mass was 2.63±0.23 and 1.80±0.11 grams, respectively in control mice (n=7) and mice receiving BAIBA (n=7); • after 6 weeks, body fat mass was 3.40±0.27 and 2.56±0.32 grams, respectively in control mice and mice receiving BAIBA.

[3] = Plasma HDL-cholesterol and triglycerides in ob/ob mice during a 4-month treatment
Description: as §1
Plasma HDL-cholesterol and alanine aminotransferase (ALT) were measured on an automatic analyser (Olympus AU400®) with commercial kits (Olympus Diagnostica GmbH, references OSR6187 and OSR6107, respectively).
In this series of experiments, plasma lipids, and especially HDL-cholesterol were assessed in ob/ob mice during a 4-month period of treatment. Mice were fed with standard diet. Ob/ob mice were treated for 4 months with β-aminoisobutyric acid, administered either at the usual dose (100 mg/kg/day) or at a higher dose (500 mg/kg/day). After two months, measurements were done in the fed state, while at the end of the treatment (i.e. after 4 months) plasma parameters were assessed after a overnight fasting period (i.e. 15 hours). One mice in the control group died between the third and fourth month of treatment.
The number of mice at the end of the experiment was 6,7 and 8, respectively in the control group and the groups treated with 100 and 500 mg/kg/day of β-aminoisobutyric acid. It is noteworthy that the animals studied in this experiment are the same than those cholesterol. Indeed, HDL-cholesterol was 3.26±0.33, 3.45±0.31 and 3.64±0.31 mmol/L, respectively in control mice and mice treated with 100 and 500 mg/kg/day of β-aminoisobutyric acid. Plasma triglycerides tended to be decreased in treated mice. Triglycerides were indeed 1.37±0.13, 1.09±0.06 and 1.25±0.17 mmol/L, respectively in control mice and mice treated with 100 and 500 mg/kg/day of β-aminoisobutyric acid.

[4] = 100 mg/kg/day, after 4 months, fasted state
[5] = 100 mg/kg/day, first time point (two months, fed state)
[6] = 500 mg/kg/day, after 4 months, fasted state
[7] = 500 mg/kg/day, first time point (two months, fed state)

Compound: CC(CN)C(=O)O (racemic) [BAIBA, D,L-β-Aminoisobutyric acid]
- plasma total cholesterol [1]: 5.23 ± 0.28 mmol/L
- plasma triglycerides [1]: 2.95 ± 0.21 mmol/L
- decrease of body fat mass ([2]; after 2 weeks): 31%
- decrease of body fat mass ([2]; after 6 weeks): 25%
- body weight vs control mice ([2]; 100 mg/kg/day, after 2 and 6 weeks): not significantly different
- body fat mass ([2]; 100 mg/kg/day, after 2 weeks): 1.80±0.11 grams
- body fat mass ([2]; 100 mg/kg/day, after 6 weeks): 2.56±0.32 grams
- HDL-cholesterol [3, 4]: 4.01 ± 0.30 mmol/L
- plasma triglycerides [3, 4]: 1.34 ± 0.08 mmol/L
- HDL-cholesterol [3, 5]: 3.45 ± 0.31 mmol/L
- plasma triglycerides [3, 5]: 1.09 ± 0.06 mmol/L
- HDL-cholesterol [3, 6]: 3.98 ± 0.31 mmol/L
- plasma triglycerides [3, 6]: 1.26 ± 0.07 mmol/L
- HDL-cholesterol [3, 7]: 3.64 ± 0.31 mmol/L
- plasma triglycerides [3, 7]: 1.25 ± 0.17 mmol/L
